The structures appear in SMILES notation.

Results on one compound are retold here after patent US20080214455A1, “Novel Chemical Compounds” (SMITHKLINE BEECHAM CORPORATION, priority 2005, published 2008).

The assay has as its target T1, hYAK3 (Homo sapiens, UniProt O43781).
T1 construct: GST (N); His6 (C); made in house; host or cells: baculovirus expression system in Sf9 cells
T1 sequence (O43781 142-526): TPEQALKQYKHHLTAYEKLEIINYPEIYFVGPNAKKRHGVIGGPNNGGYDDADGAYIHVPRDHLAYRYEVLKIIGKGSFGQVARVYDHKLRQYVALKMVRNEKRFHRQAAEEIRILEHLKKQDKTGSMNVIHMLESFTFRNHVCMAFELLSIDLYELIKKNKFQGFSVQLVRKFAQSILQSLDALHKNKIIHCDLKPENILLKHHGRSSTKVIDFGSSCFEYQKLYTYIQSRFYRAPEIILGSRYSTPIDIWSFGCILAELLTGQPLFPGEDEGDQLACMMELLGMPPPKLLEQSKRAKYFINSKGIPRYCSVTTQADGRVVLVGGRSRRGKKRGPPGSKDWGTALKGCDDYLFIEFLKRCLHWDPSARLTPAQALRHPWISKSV
Kind of assay: YAK3 Scintillation Proximity Assay using Ser164 of myelin basic protein as the phosphoacceptor (kinase assay of purified hYAK3). Type of assay: biochemical. The note with it: purified GST-hYak3-His6; 1 μM ATP; 4 μM Ser164 peptide; 2 hours at room temperature. The method, then: Substrate phosphorylation assays were carried out as follows:
YAK3 Scintillation Proximity Assays Using Ser164 of Myelin Basic Protein as the Phosphoacceptor
The source of Ser164 substrate peptide The biotinylated Ser164, S164A peptide(LGGRDSRAGS*PMARRKK-ahx-Biotin-Amide), sequence derived from the C-terminus of bovine myelin basic protein (MBP) with Ser162 substituted as Ala 162, was purchased from California Peptide Research Inc. (Napa, Calif.), and its purity was determined by HPLC. Phosphorylation occurs at position 164 (marked S* above). The calculated molecular mass of the peptide is 2166 dalton. Solid sample was dissolved at 10 mM in DMSO, aliquoted, and stored at −20 C until use. […]
Kinase assay of purified hYAK3: Assays were performed in 96 well (Costar, Catalog No.3789) or 384 well plates (Costar, Catalog No.3705). […] Compounds, titrated in DMSO, were evaluated at concentrations ranging from 50 μM to 0.2 nM. […]
The data for compound dose responses were plotted as % Inhibition, calculated with the data reduction formula 100*(1-[(U1-C2)/(C1-C2)]), versus concentration of compound, where U is the unknown value, C1 is the average control value obtained for DMSO, and C2 is the average control value obtained for 0.05M EDTA. […] The results for each compound were recorded as pIC50 calculated as follows: pIC50=−Log 10(K).

In the case of `O=C1N=C(Nc2c(Cl)cccc2Cl)S/C1=C\c1ccc2ncc(N3CCOCC3)nc2c1` [Example 1, (5Z)-2-[(2,6-Dichlorophenyl)amino]-5-{[3-(4-morpholinyl)-6-quinoxalinyl]methylidene}-1,3-thiazol-4(5H)-one], the IC50 (commonly the concentration that gives 50% inhibition) was 1.26 nM.
